Source: patent US11058677B2, “LFA-1 inhibitor formulations” (Novartis AG, priority 2012, dated 2021)

What was measured:
[1] = Stability of 5.0% solution (percentage of total degradates on storage); type: physicochemical; conditions: for individual degradate versus ICH qualification threshold: about 2 months
Description: Three separate 5.0% aqueous solutions of the compound of Formula 1 were prepared and allowed to stand at temperatures of about 5° C., 25° C., and 40° C. respectively for a period of about 15 months. The percentage of total degradates was measured for each solution after about every 4 weeks. The results of this experiment are graphically represented in FIG. 1.

[2] = Stability of three different formulations (total degradates at 40° C.); type: physicochemical
Description: Three separate solutions of the compound of Formula 1 of same concentration were prepared. The first solution (pH=6.0) was stored at 40° C. without any further additives for about four months. The second solution (pH=6.0) was further treated with a metabisulfite salt and allowed to stand at 40° C. for about four months. The pH of the third solution was buffered to pH 7.5 and allowed to stand at 40° C. for about 4 months without any further additives. The percentage of total degradates was measured for each solution after about every 4 weeks. The results of this experiment are graphically represented in FIG. 2.

[3] = Effect of antioxidants on stability of 3% w/v solutions; type: physicochemical; conditions: pH 6.5 with 0.3% w/v thiosulfate salt (40, 50, 60° C.) vs pH 7.5 without antioxidant at 40° C., about nine weeks
Description: Four separate solutions containing 3% w/v of the compound of Formula 1 were prepared. The pH of the first solution was buffered to 6.5, 0.3% w/v thiosulfate salt was added and the solution was stored at 50° C. for about nine weeks. The pH of the second solution was adjusted to 6.5, 0.3% thiosulfate salt was added and the solution was stored at 40° C. for about nine weeks. The pH of the third solution was buffered to 6.5, 0.3% thiosulfate salt was added and the solution was allowed to stand at 60° C. for about nine […]. No antioxidant was added to the fourth solution which was buffered to a pH of 7.5 and allowed to stand at a temperature of 40° C. for about 9 weeks. The percentage of total degradates was measured for each solution after about every 2-4 weeks. The results of this experiment are graphically represented in FIG. 3.

[4] = Effect of concentration (and EDTA) on formulation stability; type: physicochemical; conditions: solutions with and without 0.1% EDTA
Description: Three different concentrations of the compound of Formula 1, 1.0%, 3.0% and 5.0% were studied. The samples were monitored at a temperature of 40° C. The pH of the three solutions was maintained in the range of 7.0-7.5. The total % degradation of the three solutions was monitored with respect to time. The results of this experiment are graphically represented in FIG. 4.
Solutions both with and without 0.1% EDTA were monitored.

[5] = Individual degradates A and B by HPLC analysis on storage; type: physicochemical; conditions: 5.0% w/v solutions, 40° C. vs 60° C., about nine weeks
Description: Two solutions containing 5.0% w/v of the compound of Formula 1 were prepared. The first solution was stored at 40° C. for about 9 weeks and the second solution was stored at 60° C. for a period of about nine weeks. The percentage of each of the two major degradates of Formula 1 (degradate A and degradate B) was measured by HPLC analysis for each solution after about every 2-4 weeks. The results of this experiment are graphically represented in FIG. 5.

[6] = Degradation profile of 1.0% and 5.0% w/v solutions (degradation mechanism); type: physicochemical
Source text: The results of these experiments are graphically represented in FIG. 7.

[7] = Effect of sparging with nitrogen on stability; type: physicochemical; conditions: about 40° C., about four months
Description: Four separate solutions of the compound of Formula 1 were prepared. The pH of the first solution was buffered to 6.0. The pH of the second solution was also buffered to 6.0 and the solution was additionally sparged with nitrogen. The pH of the third solution was buffered to 7.0. The pH of the fourth solution was also buffered to 7.0 and the solution was further sparged with nitrogen. All the four solutions were stored at a temperature of about 40° C. for a period of about four months. The percentage of total degradates was measured for each solution after about every four weeks. The results of this experiment are graphically represented in FIG. 8.

[8] = Effect of pH on stability of nitrogen sparged solutions (four months); type: physicochemical; conditions: pH 6.0, 7.0, 7.5, about 40° C.
Description: Three solutions of the compound of Formula 1 were prepared. The pH of the first solution was buffered to 6.0, the pH of the second solution was also buffered to 7.0 and pH of the third solution was buffered to 7.5. All the three solutions were sparged with nitrogen were stored at a temperature of about 40° C. for a period of about four months. The percentage of total degradates was measured for each solution after about every four weeks. The results of this experiment are graphically represented in FIG. 9.

[9] = Effect of pH on stability of formulation with antioxidant (metabisulfite); type: physicochemical; conditions: metabisulfite salt, pH 6.0 and 7.0, about 40° C., about four months
Description: Two solutions of the compound of Formula 1 were prepared. The pH of the first solution was buffered to 6.0 and the pH of the second solution was also buffered to 7.0. A metabisulfite salt was added to both the solutions and were stored at a temperature of about 40° C. for a period of about four months. The percentage of total degradates was measured for each solution after about every four weeks. The results of this experiment are graphically represented in FIG. 10.

[10] = Effect of various antioxidants on stability at pH 6.5; type: physicochemical; conditions: pH about 6.5, about 40° C., about one month, sodium thiosulfate (0.3% w/v) alone vs bisulfite, acetylcysteine, thioglycerol, Vitamin E TPGS, ascorbic acid
Description: Seven different solutions of Formula 1, buffered at a pH of about 6.5, were prepared. Sodium bisulfite (0.2% w/v) and sodium thiosulfate (0.3% w/v) were added to the first solution, sodium bisulfite (0.2% w/v) was added to the second solution, sodium thiosulfate (0.3% w/v) was added to the third solution, acetylcysteine (0.2% w/v) was added to the fourth solution, thioglycerol (0.2% w/v) was added to the fifth solution, Vitamin E TPGS ([…]) was added to the sixth solution, and ascorbic acid (0.3% w/v) was added to the seventh solution. All solutions were stored at a temperature of about 40° C. for a period of about one month after which the percentage of total degradates was measured for each solution. The results of this experiment are graphically represented in FIG. 11.

[11] = Effect of pH on stability, no antioxidant (one month); type: physicochemical; conditions: pH 6.0, 7.0, 7.5, 8.0, 8.5, no antioxidant, about 40° C.
Description: Five different solutions of the compound of Formula 1 were prepared. The first solution was buffered to a pH of 6.0, the second solution was buffered to pH 7.0, the third solution was buffered to pH 7.5, the fourth solution was buffered to pH 8.0, and the fifth solution was buffered a pH of 8.5. No antioxidant was added and all solutions were stored at a temperature of about 40° C. for a period of about one month after which the percentage of total degradates was measured for each solution. The results of this experiment are graphically represented in FIG. 12.

[12] = target: LFA-1 interactions with ICAM-1 (Homo sapiens, UniProt P05107+P20701); assay: Inhibition of LFA-1 interactions with ICAM-1
[13] = Systemic clearance; conditions: in vivo

LFA-1 interactions with ICAM-1, sequence (P20701 26-1170): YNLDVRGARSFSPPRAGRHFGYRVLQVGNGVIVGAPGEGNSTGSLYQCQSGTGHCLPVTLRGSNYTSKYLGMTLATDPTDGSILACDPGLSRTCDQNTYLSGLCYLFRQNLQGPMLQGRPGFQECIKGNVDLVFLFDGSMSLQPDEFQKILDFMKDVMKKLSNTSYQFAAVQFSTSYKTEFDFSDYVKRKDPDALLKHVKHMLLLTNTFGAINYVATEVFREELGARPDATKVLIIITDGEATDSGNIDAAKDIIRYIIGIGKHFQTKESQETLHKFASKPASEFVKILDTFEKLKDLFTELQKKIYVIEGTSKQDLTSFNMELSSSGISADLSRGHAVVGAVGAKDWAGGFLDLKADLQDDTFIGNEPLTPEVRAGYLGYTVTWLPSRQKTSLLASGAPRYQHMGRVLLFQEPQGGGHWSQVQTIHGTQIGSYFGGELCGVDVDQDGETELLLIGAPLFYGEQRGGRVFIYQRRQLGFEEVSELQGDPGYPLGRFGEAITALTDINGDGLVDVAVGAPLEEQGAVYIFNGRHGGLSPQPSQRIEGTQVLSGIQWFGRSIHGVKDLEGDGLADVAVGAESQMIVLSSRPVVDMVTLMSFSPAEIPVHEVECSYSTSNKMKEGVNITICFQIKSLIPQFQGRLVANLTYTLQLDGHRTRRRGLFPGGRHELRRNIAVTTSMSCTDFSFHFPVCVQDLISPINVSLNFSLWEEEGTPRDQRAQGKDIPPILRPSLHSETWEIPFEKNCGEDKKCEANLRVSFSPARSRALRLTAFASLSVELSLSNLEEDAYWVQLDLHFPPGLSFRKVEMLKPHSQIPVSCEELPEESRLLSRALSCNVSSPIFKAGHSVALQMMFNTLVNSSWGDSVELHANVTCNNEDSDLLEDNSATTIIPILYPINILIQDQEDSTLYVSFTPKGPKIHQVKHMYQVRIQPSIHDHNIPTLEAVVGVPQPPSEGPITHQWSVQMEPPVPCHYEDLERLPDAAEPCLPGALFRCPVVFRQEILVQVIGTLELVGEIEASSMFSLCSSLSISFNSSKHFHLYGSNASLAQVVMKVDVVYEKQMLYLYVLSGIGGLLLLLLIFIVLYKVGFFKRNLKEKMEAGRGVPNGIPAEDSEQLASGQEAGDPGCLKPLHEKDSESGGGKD
LFA-1 interactions with ICAM-1, sequence (P05107 23-769): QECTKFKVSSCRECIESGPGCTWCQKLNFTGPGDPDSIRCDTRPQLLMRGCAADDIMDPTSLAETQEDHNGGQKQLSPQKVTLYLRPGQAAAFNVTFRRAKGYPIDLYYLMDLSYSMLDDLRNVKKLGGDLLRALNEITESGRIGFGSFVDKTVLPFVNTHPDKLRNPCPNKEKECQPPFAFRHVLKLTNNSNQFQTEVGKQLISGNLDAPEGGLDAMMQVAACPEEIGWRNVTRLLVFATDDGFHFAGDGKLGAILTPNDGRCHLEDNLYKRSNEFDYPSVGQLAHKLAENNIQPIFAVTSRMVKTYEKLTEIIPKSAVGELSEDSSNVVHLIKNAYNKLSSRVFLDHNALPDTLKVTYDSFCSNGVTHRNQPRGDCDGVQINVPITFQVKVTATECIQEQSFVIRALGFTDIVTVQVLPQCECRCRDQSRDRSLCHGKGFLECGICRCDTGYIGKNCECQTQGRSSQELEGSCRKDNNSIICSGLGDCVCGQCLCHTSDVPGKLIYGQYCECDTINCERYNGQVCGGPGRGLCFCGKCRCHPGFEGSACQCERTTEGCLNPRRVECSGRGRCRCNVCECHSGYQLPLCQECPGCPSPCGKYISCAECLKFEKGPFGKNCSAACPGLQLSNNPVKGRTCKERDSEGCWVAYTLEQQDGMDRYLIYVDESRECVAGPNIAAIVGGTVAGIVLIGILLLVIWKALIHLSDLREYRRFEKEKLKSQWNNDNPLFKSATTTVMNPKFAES

## CS(=O)(=O)c1cccc(C[C@H](NC(=O)c2c(Cl)cc3c(c2Cl)CCN(C(=O)c2ccc4ccoc4c2)C3)C(=O)O)c1 [compound of Formula 1]
[1]; 5.0% aqueous solution stored at 5° C., about 6 months
  individual degradant versus ICH qualification threshold: no individual degradant above the ICH qualification threshold
[1]; 5.0% aqueous solution stored at 5° C., after about 6 months
  total degradation product: about 5%
[1]; 5.0% aqueous solution stored at 25° C.
  individual degradate versus ICH qualification threshold: no individual degradate above the ICH qualification threshold
[1]; 5.0% aqueous solution stored at 25° C., in about 2 months
  total degradation product: 5%
[1]; 5.0% aqueous solution stored at 40° C.
  individual degradate versus ICH qualification threshold: no individual degradate above the ICH qualification threshold
[1]; 5.0% aqueous solution stored at 40° C., in about 2 months
  total degradation product: 5%
[2]; pH 6.0 with metabisulfite salt vs pH 6.0 without additives, about four months
  stability (total degradates), effect of added antioxidant: increases the stability
[2]; pH 7.5 without antioxidant vs pH 6.0 without additives, about 4 months
  stability (total degradates), effect of increasing pH: increases the stability
[3]
  stability (total degradates), effect of added antioxidant: increased the stability
[4]
  stability, effect of presence or absence of EDTA: did significantly change the stability
[5]
  % formation of degradates A and B, effect of storage temperature: did not significantly affect
[6]; total percentage degradation about every four weeks for six months
  rate of degradation, 5.0% w/v vs 1.0% w/v solution: greater than the rate of degradation of the 1.0 w/v solution
[6]; when a limiting reactant such as oxygen is reduced, six months
  final level of degradation, 5.0% w/v vs 1.0% w/v solution: appear to reach the same level of degradation
[7]; pH 6.0 and pH 7.0, sparged vs not sparged
  stability (total degradates), effect of nitrogen sparging: better stability
[7]; with and without nitrogen sparging
  stability (total degradates), pH 7.0 vs pH 6.0: improved stability
[8]
  stability (total degradates), effect of pH: higher pH exhibited improved stability
[9]
  degradation and pH sensitivity of stability, effect of antioxidant: significantly reduces both the degradation of Formula 1 and the sensitivity of the stability of Formula 1 to pH
[10]
  stability (total degradates), comparison of antioxidants: best overall stability
[11]
  stability (total degradates), effect of pH: higher pH exhibited better stability
[12]
  inhibition of LFA-1 interactions with ICAM-1: effective inhibitor
[13]
  systemic clearance rate: rapid systemic clearance rate
